The record followed here is BindingDB's records for doi:10.1021/jm00100a005 (Eli Lilly, 1992).

The experiment has as its target Muscarinic acetylcholine receptor M1 (Oryctolagus cuniculus). The experiment in a line: Efficacy at muscarinic acetylcholine receptor M1 measured by the ability to inhibit the electrically stimulated twitch of the rabbit vas deferens.

With `CCCCCCSc1nsnc1C1=CCCN(C)C1` [5-(4-Hexylsulfanyl-[1,2,5]thiadiazol-3-yl)-1-methyl-1,2,3,6-tetrahydro-pyridine; oxalic acid], half-maximal inhibition (IC50) required 1 pM.

Usually IC50 stands for the concentration needed to halve the response being measured. Higher therefore signals weaker potency in that assay.
